Measurements from patent US20240262807A1, “COMPOUND USED AS BCR-ABL INHIBITOR” (CHIA TAI TIANQING PHARMACEUTICAL GROUP CO., LTD., priority 2021, published 2024).

Experiments:
K562 cells = experiment: Inhibitory effect of compounds on proliferation of K562 cells (CCK-8); assay type: cell-based; details: Homo sapiens, 72 h with compound, CCK-8, 5% serum
Protocol: K562 cells in logarithmic growth phase and good cell condition were added to a centrifuge tube and centrifuged at 1000 rpm for 5 min in a low speed centrifuge. […] The cells were seeded on a 96-well plate at 100 µL/well using a multi-channel pipette and cultured in a cell incubator at 37° ° C. 5% CO2 and saturated humidity. […] Inhibition rate (%)=(mean value of negative control group−mean value of experimental group)/(mean value of negative control group−mean value of blank group)×100%. A dose-response curve was fitted by four-parameter analysis, with the logarithm of compound concentration serving as abscissa and inhibition rate serving as ordinate, such that IC50 was calculated.

hERG potassium channel = target: T1, hERG potassium channel (Homo sapiens, UniProt Q12809); experiment: Evaluation of cardiac safety: hERG potassium channel whole-cell patch clamp in HEK-293 cells; assay type: cell-based; details: HEK-293 cells over-expressing hERG potassium channel, tail current, room temperature
T1 construct: expressed in transfected cells; host or cells: HEK-293 cells, stably transformed
T1 sequence (Q12809 whole entry): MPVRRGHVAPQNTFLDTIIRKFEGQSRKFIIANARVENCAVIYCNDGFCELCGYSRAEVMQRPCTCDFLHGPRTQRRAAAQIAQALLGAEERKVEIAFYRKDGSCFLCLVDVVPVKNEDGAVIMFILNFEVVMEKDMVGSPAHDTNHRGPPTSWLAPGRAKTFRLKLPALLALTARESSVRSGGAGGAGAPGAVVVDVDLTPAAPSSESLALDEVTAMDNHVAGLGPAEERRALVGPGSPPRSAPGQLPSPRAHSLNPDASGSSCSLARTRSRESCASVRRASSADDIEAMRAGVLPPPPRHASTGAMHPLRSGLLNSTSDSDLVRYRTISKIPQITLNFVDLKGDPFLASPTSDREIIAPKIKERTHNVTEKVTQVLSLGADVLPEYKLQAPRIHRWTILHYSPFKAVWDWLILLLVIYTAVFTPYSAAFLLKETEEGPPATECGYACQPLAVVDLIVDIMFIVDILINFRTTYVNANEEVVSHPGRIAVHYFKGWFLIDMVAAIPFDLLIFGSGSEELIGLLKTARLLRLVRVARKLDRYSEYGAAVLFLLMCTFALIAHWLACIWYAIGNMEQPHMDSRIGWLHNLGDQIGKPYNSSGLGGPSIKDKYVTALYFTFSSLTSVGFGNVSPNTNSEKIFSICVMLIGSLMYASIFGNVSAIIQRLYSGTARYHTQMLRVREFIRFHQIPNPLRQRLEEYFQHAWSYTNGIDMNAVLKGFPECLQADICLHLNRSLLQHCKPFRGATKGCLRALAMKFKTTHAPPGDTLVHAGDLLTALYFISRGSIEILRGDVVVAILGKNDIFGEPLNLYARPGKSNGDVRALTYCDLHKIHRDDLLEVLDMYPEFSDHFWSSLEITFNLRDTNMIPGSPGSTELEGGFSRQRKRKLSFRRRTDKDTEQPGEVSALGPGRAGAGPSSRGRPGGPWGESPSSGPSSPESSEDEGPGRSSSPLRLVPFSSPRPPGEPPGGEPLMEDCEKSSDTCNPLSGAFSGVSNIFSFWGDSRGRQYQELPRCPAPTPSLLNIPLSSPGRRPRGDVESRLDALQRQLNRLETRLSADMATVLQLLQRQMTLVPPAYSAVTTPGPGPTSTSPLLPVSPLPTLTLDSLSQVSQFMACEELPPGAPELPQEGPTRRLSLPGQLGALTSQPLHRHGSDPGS
Protocol: The cell strains were derived from HEK-293 cells over-expressing hERG potassium channel. The cells were cultured in an incubator at 37° C. 5% CO2. […]
The stably-transformed cells were seeded onto a slide at a cell density of less than 50% and cultured overnight. […] Membrane currents were recorded by using a HEKA EPC-10 patch clamp amplifier and PATCHMASTER acquisition system (HEKA Instruments Inc., D-67466 Lambrecht. Pfalz. Germany) and analyzed and counted by using Origin 8.5 (OriginLab Corporation. Northampton. MA) software and Microsoft Excel (results in Table 4). […]
Channel currents were recorded in the experiments using a whole-cell recording mode. An extracellular fluid (approximately 2 mL per min) was firstly perfused, the process was continuously recorded, and the current was waited for stabilization (current decay (Run-Down) was less than 5% in 5 min); at this point, the tail current peak value was the control current value. Then, the extracellular fluid containing the test drug was perfused, and the process was continuously recorded until the inhibitory effect of the drug on the hERG current reached a stable state; at this point, the tail current peak value was the current value after dosing. […]

[1] = target: T2, Ba/F3-BCR-ABL1-T315I-C3 cells (Homo sapiens, UniProt P00519, T315I, cells depend on it); experiment: Inhibitory effect of compounds on proliferation of BCR-ABL T315I-transfected Ba/F3 cells (CCK-8); assay type: cell-based; details: 72 h with compound, CCK-8, 5% serum, read-out: IC50 (nM) Ba/F3-BCR-ABL1 T315I
T2 construct: fused on or other part: P11274 (Breakpoint cluster region protein)
Protocol: Ba/F3-BCR-ABL1-T315I-C3 cells in logarithmic growth phase and good cell condition were added to a centrifuge tube and centrifuged at 1000 rpm for 5 min in a low speed centrifuge. The supernatant was discarded, and 5 mL of complete medium (RPMI 1640 basic medium+10% FBS) was added using a pipette for cell resuspension. The cells were counted using a cell counter, diluted with complete medium to a cell density of 6×10^4 cells/mL, and an equivalent amount of RPMI 1640 basic medium was added to adjust the serum concentration to 5% and the cell density to 3×10^4 cells/mL for plate seeding. The cells were seeded on a 96-well plate at 100 μL/well using a multi-channel pipette and cultured in a cell incubator at 37° C. 5% CO2 and saturated humidity. After 24 h incubation, compounds were loaded using a nanoliter pipettor, 8 concentrations (1000 nM, 250 nM, 63 nM, 16 nM, 3.9 nM, 0.98 nM, 0.24 nM, 0.061 nM) were set for each compound, and 2 replicate wells were set for each concentration; cells with no compounds added were taken as a negative control, and a plating medium with no cells added was taken as a blank control. After 72 h. […] Inhibition rate (%)=(mean value of negative control group−mean value of experimental group)/(mean value of negative control group−mean value of blank group)×100%. A dose-response curve was fitted by four-parameter analysis, with the logarithm of compound concentration serving as abscissa and inhibition rate serving as ordinate, such that ICso was calculated.

[2] = Evaluation of pharmacokinetics in mice; assay type: in vivo; details: mouse, plasma, po, ICR mice
Protocol: ICR mice (purchased from Shanghai Sippe-Bk Lab Animal Co., Ltd.) of 18-22 g were randomized into groups of 9 after 3-5 days of acclimatization and administered with the compounds at a dose of 10 mg/kg by intragastric administration. The animals to be tested (ICR mice) were fasted overnight before administration and food was provided 4 h after administration, and water was freely drunk before and after the experiment and during the experiment. After intragastric administration, about 0.1 mL of blood was collected from the orbit at 0.25 (15 min), 0.5 (30 min), 1, 2, 3, 4, 6, 8, 10, and 24 h (Each mouse was subjected to blood collection at 3-4 time points, with three mice per time point). The blood samples were mixed with EDTA-K2 anticoagulant, transferred to a centrifuge within 30 min, and then centrifuged at 4000 rpm for 10 min at 4° C. to separate the plasma. All the plasma samples were collected and immediately stored at −20° C. for testing.
300 μL of acetonitrile solution containing an internal standard (20 ng/ml diazepam) was added to 30 μL of the plasma sample and standard curve sample. The mixture was shaken and mixed well for 5 min, and centrifuged at 13.000 rpm for 10 min. 70 μL of supernatant was taken and diluted with 70 μL of ultrapure water. After being mixed well, 1 μL of the resulting sample was subjected to LC/MS/MS, and a chromatogram was recorded.
Oral exposure of the compounds was evaluated by in vivo pharmacokinetic experiments in mice. The relevant pharmacokinetic parameters were fitted by using DAS3.2.5 software, where absolute bioavailability Fabs(%)=(intragastric AUC×intravenous dosage)/(intravenous AUC×intragastric dosage)×100%.

| IC50 (K562 cells) | GI50 [1] | bioavailability ([2]; ig 10 mg/kg, (intragastric AUC×intravenous dosage)/(intravenous AUC×intragastric dosage)×100%, read-out: Fabs(%) absolute bioavailability) | Cmax ([2]; ig, 10 mg/kg) | Tmax ([2]; ig, 10 mg/kg) | half-life ([2]; ig, 10 mg/kg) | AUC(0-t) ([2]; ig, 10 mg/kg, read-out: AUC(0-24)) | MRT last ([2]; ig, 10 mg/kg, read-out: MRT(0-24)) | SMILES | IC50 (hERG potassium channel) |
| --- | --- | --- | --- | --- | --- | --- | --- | --- | --- |
| 1.1 nM | 0.54 nM | – | – | – | – | – | – | O=C(Nc1ccc(OC(F)(F)Cl)cc1)c1cnc(N2CC[C@@H](O)C2)c(-c2cc3c([nH]2)C(=O)NC3)c1 [Compound 106] | > 30000 nM |
| 1.2 nM | 0.86 nM | – | – | – | – | – | – | O=C(Nc1ccc(OC(F)(F)Cl)cc1)c1cnc(N2CC(O)C2)c(-c2cc3c([nH]2)C(=O)NC3)c1 [Compound 104] | > 30000 nM |
| 11 nM | 16 nM | 74.1% | 772 ng/mL | 3 h | 1.05 h | 2850 ng·h/mL | 3.03 h | Cn1ccc(-c2cc(C(=O)Nc3ccc(OC(F)(F)Cl)cc3)cnc2N2CCOCC2)cc1=O [Compound 7] | – |
